The target in experiment [1] is T1, human PPARα (Homo sapiens, UniProt Q07869).
T1 construct: expressed in transfected cells; host or cells: COS-7 monkey kidney cells (ATCC CRL-1651)
T1 sequence (Q07869 192-468 limits assumed): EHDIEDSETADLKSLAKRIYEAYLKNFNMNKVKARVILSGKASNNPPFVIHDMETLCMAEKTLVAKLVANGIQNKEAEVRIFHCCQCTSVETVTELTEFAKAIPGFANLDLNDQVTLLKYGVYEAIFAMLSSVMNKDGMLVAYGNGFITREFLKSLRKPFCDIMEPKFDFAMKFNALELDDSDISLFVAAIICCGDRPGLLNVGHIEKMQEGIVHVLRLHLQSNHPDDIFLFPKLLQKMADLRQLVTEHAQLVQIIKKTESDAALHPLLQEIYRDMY
The experiment can be described thus: PPARα activation, PPRE-controlled luciferase reporter in transfected COS-7 cells. Particulars: 25 μM, 24 hours, control 0.01% DMSO. The format is cell-based. Here is the method: To investigate whether macelignan acts as a ligand of PPAR or not, it was tested according to known method (Cell, 68: 879-887, 1992; J. Biol. Chem., 272: 25252-25259, 1997) using a plasmid expressing PPAR and a vector having PPRE-controlled luciferase genes.
Activation of luciferase expression was measured by transfecting COS-7 monkey kidney cells (ATCC CRL-1651) with the PPARα plasmid and pFR-luciferase vector (Stratagene, USA), and then by treating the transfected cells with macelignan isolated from Example 1 for 24 hours. The PPARα plasmid was obtained by isolating polynucleotide encoding the amino acid sequence of amino acids […] (i.e. PPARα ligand-bound domain of the total amino acid sequence of human PPARα (Genbank Acession No. S74349)) with the primers of SEQ ID NO: 1 ([…]) and SEQ ID NO: 2 (TGGGGTACCTGGCTGAT) by RT-PCR. Then, the polynucleotide was cloned between the restriction enzyme sites of BamHI and KpnI of pFA vector (Stratagene, USA). Herein, mRNA used as the template in RT-PCR was obtained by separating the total RNA in cultured Hep G2 (ATCC HB-8065) human liver cells by using TRIZOL (Invitrogen, USA). RT-PCR was performed by synthesizing cDNA using reverse transcriptase at 42° C. for 60 minutes, and 30 cycles of 1 minute at 95° C., 30 seconds at 54° C. and 2 minutes at 72° C. using Taq polymerase. At this time, the test groups treated with different concentrations (1, 5, 10 and 25 μM) of macelignan according to the present invention were compared to the control treated with 0.01% DMSO, and to the groups treated with different concentrations (1, 5, 10 and 25 μM) of Wy-14643 (Sigma, USA), a compound known as a PPARα ligand.

The subject of experiment [2] is obesity/diabetes mice (db/db mice). The experiment can be described thus: Effect upon hyperlipidemia and cardiovascular diseases in obesity/diabetes mouse model. The format is in vivo. Particulars: 10 mg/kg oral, 14 days. The method, then: To investigate effects of macelignan upon the treatment of hyperlipidemia and cardiovascular diseases, seven mice of 10 week-aged obesity/diabetes mice (db/db mice) were used per test group. To the test groups, macelignan suspended in 0.25% carboxymethyl cellulose was orally administered in an administration dose of 5 mg/kg (body weight), 10 mg/kg (body weight) and 25 mg/kg (body weight), once per day at a predetermined time, for 14 days. As a control, 0.25% carboxymethyl cellulose was orally administered alone to normal mice in the same dose as administered to the test group. As another control, 0.25% carboxymethyl cellulose was orally administered alone to obesity/diabetes mice in the same dose as administered to the test group. As still another control, 10 mg/kg (body weight) of troglitazone was orally administered. Fourteen days after the administration, triglyceride concentration in blood (triglyceride measuring kit, Wako, Japan), free fatty acid concentration in blood (free fatty acid measuring kit, Wako, Japan), total cholesterol content in blood (ASAN T-CHO-Lq Reagents, Asan Pharmaceutical Co. Ltd., Korea), HDL-cholesterol content in blood (ASAN HDL-Cholesterol, Asan Pharmaceutical Co. Ltd., Korea), IL-6 content in blood (IL-6 Quantikine ELISA, R&D systems, USA) and TNF-α content in blood were measured for the test groups and the controls.

Experiment [3] has the same test system. The experiment can be described thus: Anti-diabetes effect in obesity/diabetes mouse model. It counts as in vivo. Particulars: 10 mg/kg oral; for OGTT blood sugar: 12th day. The source says: A mouse (db/db mouse; The Jackson Laboratory, USA) used in the present invention as an obesity/diabetes model is deficient in leptin genes and cannot control its appetite, and thus takes an excessive amount of food continuously. […] Thus, it can be a typical model of obesity and metabolic diseases. Additionally, it has a higher blood sugar level and can be a typical model of non-insulin-dependent diabetes mellitus. To investigate the effect of preventing and treating diabetes of macelignan, seven mice of 10 week-aged obesity/diabetes mice (db/db mice) were used per test group. To the test groups, macelignan suspended in 0.25% carboxymethyl cellulose was orally administered with the dose of 5 mg/kg (body weight), 10 mg/kg (body weight) and 25 mg/kg (body weight), once per day at a predetermined time, for 14 days. As a control, 0.25% carboxymethyl cellulose was orally administered alone to normal mice in the same dose as administered to the test group. As another control, 0.25% carboxymethyl cellulose was orally administered alone to obesity/diabetes mice in the same dose as administered to the test group. As still another control, 10 mg/kg (body weight) of troglitazone was orally administered. Blood sugar levels of the obesity/diabetes mice were determined from six days before the administration, once per three days. On the 12th day after the oral administration, the test group and the controls were subjected to the Oral Glucose Tolerance Test (OGTT). For this test, obesity/diabetes mice in the test group and the controls were fasted for at least 18 hours, glucose was orally administered to the mice in a dose of 3 g/kg (body weight), and then variations in the blood sugar were measured at 0 minutes, 30 minutes, 60 minutes and 120 minutes after the glucose administration. Additionally, on the 14th day of the oral administration, the final blood sugar level, insulin content in blood (mouse insulin ELISA Kit, Linco Research, o. EZRMI-BK, USA) and adiponectin content in blood (Adiponectin Quantikine ELISA Kit, R&D systems, No. MRP300, USA) were analyzed.

For the compound `Cc1cccc(Nc2cc(Cl)nc(SCC(=O)O)n2)c1C` [Wy-14643, reference compound], the “luciferase activity higher than the control (PPARα)” value in experiment [1] is listed as “about 16 times”.

With `Cc1c(C)c2c(c(C)c1O)CCC(C)(COc1ccc(CC3SC(=O)NC3=O)cc1)O2` (stereo not shown) [troglitazone, reference compound], in experiment [2], the “Free fatty acid in blood” value was 1.22 ± 0.27 mEq/l, the HDL-cholesterol in blood turned out to be 43.9 ± 6.34 mg/dL, the IL-6 in blood stood at 10.24 ± 3.60 pg/mL and the TNF-α in blood stood at 30.49 ± 13.18 pg/mL. In experiment [2], this compound had a Total cholesterol in blood of 134 ± 34.9 mg/dL and a Triglyceride in blood of 112.57 ± 57.47 mg/dL. This compound also had an OGTT blood sugar in experiment [3] (0 min. after glucose 3 g/kg) of 303.43 ± 37.83 mg/dL. In addition, in experiment [3] (14th day, db/db mice), the “Adiponectin concentration in blood” value came out at 6682.33 ± 250.05 ng/mL and the “Insulin concentration in blood” value worked out at 18.57 ± 5.88 ng/mL. For the same compound, the OGTT blood sugar in experiment [3] (30 mins. after glucose 3 g/kg) came to 610.57 ± 76.21 mg/dL. Besides, the OGTT blood sugar in experiment [3] (60 mins. after glucose 3 g/kg) amounted to 523.70 ± 17.10 mg/dL. The compound also gave an OGTT blood sugar in experiment [3] (120 mins. after glucose 3 g/kg) of 456.41 ± 54.69 mg/dL.

These data come from US7902254B1, “Method for treating conditions mediated by PPAR using macelignan” (Newtree Co., Ltd., priority 2005, dated 2011).
